Reference: patent US20210038577A1, “THIOREDOXIN REDUCTASE INHIBITORS FOR USE IN THE TREATMENT OF CANCER” (Cinda Pharma AB, priority 2018, published 2021)
Where “and” joins values, the source holds several entries; their conditions need not be identical. Equal values may be shown once.

Columns and labels:
recombinant rat TrxR = target: T1, recombinant rat TrxR (Rattus norvegicus, UniProt O89049); assay: Sec-dependent TrxR activity (DTNB assay); type: biochemical; conditions: binding time of 4 hours (FIG. 1A)
T1 sequence (O89049 1-499): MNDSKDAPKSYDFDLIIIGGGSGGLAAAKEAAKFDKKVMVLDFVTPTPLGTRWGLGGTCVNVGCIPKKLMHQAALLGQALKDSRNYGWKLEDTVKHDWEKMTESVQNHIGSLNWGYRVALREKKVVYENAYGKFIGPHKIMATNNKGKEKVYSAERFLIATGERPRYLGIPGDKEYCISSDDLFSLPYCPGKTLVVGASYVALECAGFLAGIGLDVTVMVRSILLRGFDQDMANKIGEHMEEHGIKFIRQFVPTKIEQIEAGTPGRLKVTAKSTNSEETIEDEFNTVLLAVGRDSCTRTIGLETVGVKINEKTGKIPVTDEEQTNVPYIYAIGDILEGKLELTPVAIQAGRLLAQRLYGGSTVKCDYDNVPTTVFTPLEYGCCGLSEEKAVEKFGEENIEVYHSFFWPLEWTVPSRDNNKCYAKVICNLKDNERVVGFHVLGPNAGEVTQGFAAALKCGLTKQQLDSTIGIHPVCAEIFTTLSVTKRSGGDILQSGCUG
Description: Sec-dependent TrxR activity was assessed using a 5′-5-dithiobis-(2-nitrobenzoic acid) (DTNB) assay. Multiple concentrations of compounds were incubated for various time points in reaction buffer, consisting of 50 mM Tris pH 7.5 with 2 mM EDTA and 0.1 mg/mL bovine serum albumin, and containing recombinant rat TrxR and 250 μM NADPH. 2.5 mM DTNB was added to each well and TNB^− production was followed at OD412. […] The amino acid sequence of rat TrxR1 is available in Gen Bank, with accession number AAF32362.1.

[1] = system: TM00098 patient-derived xenografts (TNBC); assay: TM00098 patient derived TNBC xenografts in humanized Hu-CD34-NSG mice, tumor growth; type: in vivo
Text: FIG. 11: Primary tumor growth of TM00098 patient derived triple-negative breast cancer xenografts in humanized immunocompetent NSG mice (Hu-CD34-NSG) treated with OT-1096 or vehicle control. A) Humanized NSG mice (Hu-CD34-NSG) engrafted with CD34+ cells from donor 5243 and subsequently implanted with TNBC PDX TM00098. B) Humanized NSG mice (Hu-CD34-NSG) engrafted with CD34+ cells from donor 5252 and subsequently implanted with TNBC PDX TM00098. Female NSG mice were implanted with human CD34+ hematopoietic stem cells from multiple donors and the level of human CD45+ cells were measured in the peripheral blood 12 weeks post engraftment. Mice with >25% human CD45+ cells in the peripheral blood were determined to have a humanized immune system (Hu-CD34-NSG™) mice and were enrolled into the study. […] Tumor volume was measured using a digital caliper two times a week for the duration of the study. […] Statistical significance (p<0.05) was determined using a Two-way repeated measures ANOVA with Sidak's multiple comparison test.
Athymic nude mice were inoculated orthotopically with 5×10^6 MDA-MB-231 breast cancer cells into the mammary fat pad, and randomized for treatment when tumors reached an average volume of 80-120 mm^3 (N=12 in each group). […] Xenograft tumor volume was assessed using caliper measurements for 25 days. […] Xenograft tumor volume was assessed using caliper measurements for 25 days. […]

Row | potency relative to Iniparib, TrxR C-terminal activity (recombinant rat TrxR) [fold] | SMILES | % TGI ([1]; 10 mg/kg three times a week intravenously, human immune cells from two separate donors, caliper) | mean tumor volume compared to vehicle ([1]; day 24 and 28 for CD34+ donor 5243, day 31 for donor 5252, p<0.05)
1 | 1000 | COc1ccc([N+](=O)[O-])c(S(=O)(=O)c2ccc(Cl)cc2)n1 [OT-1000, 2-((4-Chlorophenyl)sulfonyl)-6-methoxy-3-nitropyridine] |  | 
2 |  | CCCCCCCCS(=O)(=O)c1nc(OC)ccc1[N+](=O)[O-] [OT-1096, 6-methoxy-3-nitro-2-(octylsulfonyl)pyridine] | 45% and 55% | statistically significant
